The values that follow come from US20220096609A1 (priority 2019, published 2022).

Test [1] relates to mouse phrenic nerve hemi-diaphragm. Also on record: species or system CD-1 mice.
Test [2] concerns mouse phrenic nerve hemidiaphragm. Set-up: species or system CD-1 mice.

Entries after “also recorded” stand apart in the source; their conditions may differ.

Turning to `Nc1ccncc1N` [DAP, 3,4-diaminopyridine], in test [1], the “higher concentration of toxin required to induce an equivalent reduction in time for 90% paralysis as caused by DAP” value came to 6 times, the “muscle denervation compared with BoNT/E alone” value is reported as “faster muscle denervation”, the “muscle tension response / neurotransmission” value is recorded as “elevated muscle tension response; also recorded: enhanced neurotransmission” and the onset of neuroparalysis result is listed as “faster onset of neuroparalysis”. Further, in test [1], the “reduction of the therapeutically effective amount of BoNT/E compared with BoNT/E administered alone” value is on record as 25-600%, the “time taken for 50% paralysis (TTP50)” value was “faster time”, the “time taken for 90% paralysis (TTP90)” value is given as “faster time” and the “uptake of BoNT/E” value was “increased uptake”.

For `Nc1ccncc1` [4-AP, 4-aminopyridine], in test [2], the “faster BoNT/A onset (time required for 50% paralysis)” value is on record as “approximately 25%”, the “increase of (initial) amplitude of muscle tension” value was “approximately 2.5 fold” and the “onset of paralysis compared with 30 pM BoNT/A in the absence of 4-AP” value is given as “progressed faster; also recorded: increased the onset of paralysis”.
